# In patent US20260055061A1, “HALOPHTHALIMIDE COMPOUNDS AND METHODS OF USE AGAINST TBI, INFLAMMATORY DISORDER, AUTOIMMUNE DISORDER, NEURODEGENERATIVE DISEASE OR VIRAL INFECTION” (The United States of America, as represented by the …, priority 2022, published 2026):
# Entries after “also recorded” stand apart in the source; their conditions may differ.
# Experiments:
# IL-5 = test: LPS model of inflammation in rats: IL-5 in plasma and cortex; assay type: in vivo, rat; conditions: both doses; LPS-challenged rats
# [1] = target: cereblon (CRBN/DDB1-CUL4A-Rbx1 complex) / BRD3 (Homo sapiens (Human), UniProt Q96SW2); test: Cereblon/BRD3 binding assay (AlphaScreen / FRET); conditions: for IC50: Example 5, FIG. 20A; for cereblon binding (in words): cereblon/BRD3 binding FRET assay
# Chain of cereblon (CRBN/DDB1-CUL4A-Rbx1 complex) / BRD3 (Q96SW2 whole entry): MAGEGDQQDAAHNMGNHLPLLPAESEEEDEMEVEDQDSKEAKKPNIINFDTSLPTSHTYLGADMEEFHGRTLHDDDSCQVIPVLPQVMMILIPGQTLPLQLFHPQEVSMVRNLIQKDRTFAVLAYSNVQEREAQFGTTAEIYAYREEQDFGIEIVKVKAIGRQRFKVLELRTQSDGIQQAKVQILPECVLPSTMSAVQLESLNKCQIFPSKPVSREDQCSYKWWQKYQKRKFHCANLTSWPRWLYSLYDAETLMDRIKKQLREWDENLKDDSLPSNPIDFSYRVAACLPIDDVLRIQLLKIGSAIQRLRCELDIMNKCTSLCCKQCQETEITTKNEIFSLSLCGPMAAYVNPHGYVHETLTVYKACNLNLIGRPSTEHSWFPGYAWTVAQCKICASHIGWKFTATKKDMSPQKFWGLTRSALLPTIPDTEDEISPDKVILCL
# Chain of cereblon (CRBN/DDB1-CUL4A-Rbx1 complex) / BRD3 (Q16531 whole entry partner): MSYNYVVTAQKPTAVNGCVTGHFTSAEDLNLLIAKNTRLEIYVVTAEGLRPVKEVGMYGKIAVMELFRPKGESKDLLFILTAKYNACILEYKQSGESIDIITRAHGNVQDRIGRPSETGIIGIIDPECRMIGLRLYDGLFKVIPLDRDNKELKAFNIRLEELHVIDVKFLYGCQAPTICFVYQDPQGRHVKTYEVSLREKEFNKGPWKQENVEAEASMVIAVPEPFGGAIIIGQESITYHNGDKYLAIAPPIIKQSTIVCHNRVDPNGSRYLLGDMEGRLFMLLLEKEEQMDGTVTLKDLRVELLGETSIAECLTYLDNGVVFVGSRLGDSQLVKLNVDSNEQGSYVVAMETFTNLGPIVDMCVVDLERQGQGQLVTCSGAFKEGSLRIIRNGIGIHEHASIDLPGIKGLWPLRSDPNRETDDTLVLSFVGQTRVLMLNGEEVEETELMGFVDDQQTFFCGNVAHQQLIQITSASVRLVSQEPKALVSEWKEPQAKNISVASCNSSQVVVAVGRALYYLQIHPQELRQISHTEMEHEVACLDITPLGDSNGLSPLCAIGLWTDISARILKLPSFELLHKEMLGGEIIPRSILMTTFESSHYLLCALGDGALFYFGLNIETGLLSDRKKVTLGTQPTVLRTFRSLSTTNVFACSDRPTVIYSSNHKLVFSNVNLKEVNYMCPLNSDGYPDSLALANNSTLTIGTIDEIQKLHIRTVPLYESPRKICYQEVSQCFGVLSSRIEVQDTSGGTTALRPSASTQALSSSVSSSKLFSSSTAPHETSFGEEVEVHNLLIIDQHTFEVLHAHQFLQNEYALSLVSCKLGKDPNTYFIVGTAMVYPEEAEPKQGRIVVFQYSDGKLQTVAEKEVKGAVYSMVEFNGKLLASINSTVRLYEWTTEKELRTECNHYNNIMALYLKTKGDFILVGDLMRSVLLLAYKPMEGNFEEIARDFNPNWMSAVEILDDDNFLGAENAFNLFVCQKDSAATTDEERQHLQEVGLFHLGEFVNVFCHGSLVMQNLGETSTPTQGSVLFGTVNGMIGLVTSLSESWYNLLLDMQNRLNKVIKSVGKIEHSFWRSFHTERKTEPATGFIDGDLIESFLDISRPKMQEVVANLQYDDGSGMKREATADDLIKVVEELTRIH
# Chain of cereblon (CRBN/DDB1-CUL4A-Rbx1 complex) / BRD3 (Q13619 whole entry partner): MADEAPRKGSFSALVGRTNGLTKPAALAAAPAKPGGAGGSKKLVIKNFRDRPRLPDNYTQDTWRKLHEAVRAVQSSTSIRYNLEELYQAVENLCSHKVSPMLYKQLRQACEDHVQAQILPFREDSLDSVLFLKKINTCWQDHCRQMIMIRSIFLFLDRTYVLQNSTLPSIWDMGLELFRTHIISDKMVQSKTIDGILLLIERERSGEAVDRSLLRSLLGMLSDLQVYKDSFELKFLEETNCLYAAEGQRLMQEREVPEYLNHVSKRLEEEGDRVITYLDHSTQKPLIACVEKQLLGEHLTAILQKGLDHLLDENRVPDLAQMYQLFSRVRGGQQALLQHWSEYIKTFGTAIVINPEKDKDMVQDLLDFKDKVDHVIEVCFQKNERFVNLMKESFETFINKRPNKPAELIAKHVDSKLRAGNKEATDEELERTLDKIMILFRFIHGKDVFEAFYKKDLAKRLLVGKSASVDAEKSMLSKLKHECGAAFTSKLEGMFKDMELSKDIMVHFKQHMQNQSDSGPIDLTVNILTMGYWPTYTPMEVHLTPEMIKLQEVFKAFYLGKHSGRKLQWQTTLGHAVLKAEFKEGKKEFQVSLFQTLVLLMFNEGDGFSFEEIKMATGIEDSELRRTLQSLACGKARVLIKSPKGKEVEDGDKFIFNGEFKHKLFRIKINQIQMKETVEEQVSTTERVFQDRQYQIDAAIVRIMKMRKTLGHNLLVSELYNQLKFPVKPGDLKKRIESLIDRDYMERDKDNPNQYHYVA
# Chain of cereblon (CRBN/DDB1-CUL4A-Rbx1 complex) / BRD3 (P62877 whole entry partner): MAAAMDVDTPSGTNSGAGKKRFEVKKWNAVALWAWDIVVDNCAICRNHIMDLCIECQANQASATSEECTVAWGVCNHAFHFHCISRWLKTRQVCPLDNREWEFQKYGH
# Method: After 30 min of incubation with shaking at room temperature, AlphaLISA anti-FLAG Acceptor and Alpha Glutathione Donor beads (PerkinElmer) were sequentially added and then incubated for 1 hr at room temperature for each of the added chemicals. Alpha counts were thereafter read on a Synergy Neo2 (BioTek) for the analysis. Relative activity or inhibition was calculated as the highest value, which was set to 100%, and the lowest value was set to 0% after subtraction of the “blank value” from all readings.
# After 30 min of incubation with shaking at room temperature, AlphaLISA anti-FLAG Acceptor and Alpha Glutathione Donor beads (PerkinElmer) were sequentially added and then incubated for 1 h at room temperature for each of the added chemicals. Alpha counts were thereafter read on a Synergy Neo2 (BioTek) for the analysis. The relative activity of the alpha signal was calculated after subtraction of the “blank value” from all readings, and the value of the vehicle group was then set as 100%.
# SALL4 = SALL4 (Homo sapiens (Human), UniProt Q9UJQ4); test: SALL4 expression in Tera-1 cells (Western blot); assay type: cell-based; conditions: Tera-1 cells, 0.1 μM and 1 μM
# Method: (§1) For Western blot analysis, total proteins were extracted using RIPA buffer (ThermoFisher Scientific, Waltham, MA) containing Halt Protease Inhibitor Cocktail (ThermoFisher Scientific). […] After incubation at 4° C. overnight, the following HRP conjugated secondary antibodies were used: (i) goat anti-rabbit IgG (ThermoFisher Scientific) for ikaros and aiolos, and (ii) goat anti-mouse IgG (ThermoFisher Scientific) for SALL4 and GAPDH. […] Antigen-antibody complexes were detected using enhanced chemiluminescence (Thermo, iBright CL1500).
# Specifically, MM1.S cells were obtained from ATCC (Manassas, VA, USA), grown in RPMI media supplemented with 10% FBS, penicillin 100 U/mL, and streptomycin […], and maintained at 37° C. and 5% CO2.
# as §1, with “MA, USA)” for “MA)”, “Scientific). Thereafter, the proteins were separated by gel electrophoresis and then transferred to polyvinylidene difluoride (PVDF) membranes (ThermoFisher Scientific), as described previously.” for “Scientific).”, “HRP-conjugated” for “HRP conjugated”, “Ikaros” for “ikaros”, “Aiolos,” for “aiolos,”, “(ThermoFisher Scientific,” for “(Thermo,”
# RAW 264.7 cells = test: Cell viability of drug treated RAW 264.7 cells (CellTiter 96 AQueous One, MTS)
# CCI-induced TBI mice = test: CCI mouse model of TBI: Iba1 microglia / GFAP astrocyte immunofluorescence (MotiQ); assay type: in vivo
# Method: In vivo model of TBI: Mice were anesthetized with 2.5% tribromoethanol (Avertin: 250 mg/kg; Sigma, St. Louis, MO, USA) and placed in a stereotaxic frame (Kopf Instruments, Tujunga, CA, USA). A 4 mm craniotomy was performed using sterile procedures; the craniotomy point was selected midway between the lambda and bregma sutures and laterally midway between the central suture and the temporalis muscle. The skull fragment was then carefully removed without disruption of the underlying dura. Prior to injury induction, the tip of the impactor was angled and kept perpendicular to the exposed cortical surface. The mouse CCI instrument consisted of an electromagnetic impactor, Impact One (Leica Biosystems Inc., Buffalo Grove, IL, USA) that allows independent alteration of injury severity by controlling contact velocity and the level of cortical deformation. In these experiments, the contact velocity was set at 5.0 m/sec, the dwell time was set at 0.2 s and the deformation depth was set at 2 mm to produce a moderate TBI. The injury site was allowed to dry prior to suturing the wound. During surgery and recovery, the body temperature of the animals was maintained at 36-37° C. by using a heating pad. […] Mice were randomized following CCI to treatment with either of two doses of TFBP (16.25 mg/kg and 32.5 mg/kg, i.p.) or saline, and were dosed at 1 and 24 hr after the injury.
# Tissue processing: Two weeks after injury, mice were deeply anesthetized with isoflurane and perfused transcardially with 30 ml phosphate buffered saline (PBS). After removal, the brain was post-fixed with 4% PFA overnight then transferred to a 30% sucrose solution in PBS. Coronal sections from the dorsal hippocampus and the posterior parietal cortex were cryosectioned at 25 μm thickness and stored in cryoprotectant solution for Giemsa staining and immunohistochemical analysis.
# Immunofluorescence analysis: For GFAP and Iba1 quantification, brain samples were incubated overnight with either one of the following primary antibodies: anti-GFAP 1:2500 dilution (chicken polyclonal, Abcam, USA, cat #ab4674) or anti-Iba1 1:200 dilution (guinea pig polyclonal anti-Iba1, Synaptic System, USA, cat #234004). After PBS washing, sections were incubated for 1 hr at RT with a goat anti-chicken AlexaFluor® 488-conjugated secondary antibody IgY (H+L) 1:500 dilution (ThermoFisher, USA, cat #A-21432) for detection of GFAP, and with a Goat anti-Guinea Pig IgG (H+L) Highly Cross-Adsorbed Secondary Antibody, Alexa Fluor™ 555, ThermoFisher, USA, cat #A-21435) for detection of Iba1. Sections were washed in PBS and mounted with […]® Antifade Mounting Medium with DAPI (Vectorlabs, USA, cat #H-1200). Controls consisted of omission of the primary antibody. […] Multiple parameters were analyzed, including ramification index, spanned area, number of branches, junctions and endpoints.
# In Vivo Model of TBI: TBI studies were conducted in 8-week-old male C57/BL6 mice (25-30 g; n=20), Jackson Laboratory, Bar Harbor, Maine USA. Mice were randomly assigned to four groups prior surgery, CMC+Sham, CMC+TBI, compound 30 (Low dose (LD), 14.78 mg/kg, prepared in 1% CMC in PBS)+TBI, compound 30 (High dose (HD), 29.57 mg/kg)+TBI, and evaluated the effects of compound 30 on TBI. Mice were assessed for gait function and motor coordination, balance function. Animals were subsequently evaluated for cellular changes using histological and immunohistochemistry staining. […]
Structure (SMILES),IL-5 expression in plasma (in words) (IL-5),IC50 [1] [µM],cereblon binding (in words) [1],SALL4 expression levels (SALL4),SALL4 expression levels (SALL4; listed as TFNBP),"cellular viability (RAW 264.7 cells; 0.6-60 μM, LPS 60 ng/mL, 24 h) [%]","number of astrocytes (GFAP) in cortex (CCI-induced TBI mice; 14.78, 29.57 mg/kg, 2 weeks after TBI)","number of branches, junctions, endpoints of microglial processes (CCI-induced TBI mice; 14.78, 29.57 mg/kg, ipsilateral cortex)",number of microglia induced by TBI (CCI-induced TBI mice; cortex),"microglial ramification index and spanned area (CCI-induced TBI mice; ipsilateral cortex, 2 weeks after TBI)","cell viability (RAW 264.7 cells; 1 μM, RAW 264.7 cells) [%]","Cell Viability % Δ (RAW 264.7 cells; 1 μM, RAW 264.7 cells, percentage of vehicle control value, mean ± S.E.M., n = 3) [%]","cell viability (in words) (RAW 264.7 cells; 100-1000 nM, vs LPS+Vehicle)","microglial morphology (ramification index, spanned area, end points, branches, junctions), ipsilateral side (CCI-induced TBI mice; lower and higher dose, 2 weeks after CCI)",SALL4 expression levels (SALL4; listed as TFBP)
"O=C1c2c(F)c(F)c(F)c(F)c2C(=O)N1C1CC2CCC1C2 (stereo not drawn) [Compound 16, 2-Endo-(bicyclo[2.2.1]heptan-2-yl)-4,5,6,7-tetrafluoroisoindoline-1,3-dione]",reduced IL-5 expression in plasma,> 100,did not bind cereblon,did not statistically affect,did not lower the expression of neosubstrate SALL4,,,,,,,,,,
"Nc1ccc(F)c2c1C(=S)N(C1CCC(=S)NC1=O)C2=O (stereo not shown) [Compound 30, 4-amino-7-fluoro-2-(2-oxo-6-thioxopiperidin-3-yl)-3-thioxoisoindolin-1-one]",,,,,,> 90,significantly decreased the number of astrocytes,significantly rescue the morphological changes of microglia,"subtle reduction, but not significant",significantly ameliorated the morphological alteration of microglia,,,,,
"CC1(C)[C@@H]2CC[C@@]1(C)[C@@H](N1C(=O)c3c(F)c(F)c(F)c(F)c3C1=O)C2 [Compound 14, 4,5,6,7-Tetrafluoro-2-((1R,2S,4R)-1,7,7-trimethylbicyclo[2.2.1]heptan-2-yl) isoindoline-1,3-dione]",reduced IL-5 expression in plasma,53.4,did not bind cereblon,did not statistically affect,,,,,,,≥ 94,95 ± 4,not significantly affected; also recorded: without impact on cell viability,substantially counteracted these CCI-induced microglial phenotypic measures,did not lower the expression of neosubstrate SALL4
